Results taken from PMC9758846, “Dinuclear and mononuclear metal(II) polypyridyl complexes against drug-sensitive and drug-resistant Plasmodium falciparum and their mode of action” (Malaria Journal, 2022).

Experiments:
[1] = test system: B+ blood red blood cells (RBC); assay: In vitro haemolytic assay; type: cell-based, human; details: 72 h, B+ blood
Procedure: Fresh B+ blood was washed with RPMI1640 medium containing of 30 µg/mL gentamicin (Gibco) and centrifuged at 1000 xg for 10 min three times. The percentage of haemolysis was determined spectroscopically using 5% haematocrit containing test compound at increasing concentration and incubated for 72 h at 37 °C [19, 20]. Untreated blood acted as negative control while blood treated with sterile distilled water acted as positive control (for 100% haemolysis).

Pf3D7 [2] = assay: Nuclear morphology study by Hoechst staining; type: cell-based, Plasmodium falciparum; details: Pf3D7-infected RBC; 72 h; 0.2-25 µM
Procedure: Detections of haemolytic and apoptotic morphological features were examined on Giemsa-stained thin blood smear. The parasite was then visualised with oil immersion (100 × magnification) using upright brightfield microscope. Another thin blood smear was prepared, fixed with methanol, stained in 10 µg/mL of Hoechst 33,258 stain, and kept in the dark for 30 min at room temperature. A cover slip was applied, and the nuclear morphological examination was then visualized with at 100 × magnification with oil by fluorescence microscope using DAPI filter.
The morphological features of apoptosis of P. falciparum can be indicated by chromosome condensation and fragmentation of the P. falciparum nuclei in the non-nuclear RBC cells. The condensed chromosomes would be stained bright blue. The pRBC cells were treated with (1) and (3) respectively for 72 h, and the resultant pRBC were visualized and photographed at 100 × magnification with oil immersion. Typical images were enlarged to look at single cells and are depicted in Fig. 9 for Pf3D7 and Fig. 10 for Pf5202. […] The nuclei of P. falciparum trophozoites in pRBC were observed under brightfield microscope as dots, and they were stained brighter blue which increased in fluorescence intensity with increasing concentration of copper(II) complexes of (1) and (3) from 0.2, 1, 5 to 25 µM compared to the untreated pRBC.

[3] = biological target: Pf5202 20S proteasome chymotrypsin-like (CT-L) site (Plasmodium falciparum, UniProt Q8IJT1); assay: 20S proteasome inhibition assay using parasite lysate; type: biochemical; details: Suc-LLVY-AMC, 30 min
Chain of Pf5202 20S proteasome chymotrypsin-like (CT-L) site (Q8IJT1 entry or part of it): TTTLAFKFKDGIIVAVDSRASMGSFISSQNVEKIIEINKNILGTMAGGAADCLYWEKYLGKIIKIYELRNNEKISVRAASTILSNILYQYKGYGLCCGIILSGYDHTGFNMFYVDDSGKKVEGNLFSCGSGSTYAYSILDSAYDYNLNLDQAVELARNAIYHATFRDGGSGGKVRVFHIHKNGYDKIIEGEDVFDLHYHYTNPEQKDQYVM
Procedure: (§1) To harvest P. falciparum parasites, intraerythrocytic Pf3D7 and Pf5202 were collected in trophozoite and early schizont stages. Red blood cells were lysed in 0.15% (w/v) saponin lysis buffer for 10 min at 37 °C. After lysis, the parasite pellet was washed once with PBS buffer by centrifuging at 1600 rpm for 5 min. Saponin lysis buffer was added once again to remove all the red blood cells for 10 min at 37 °C, followed by washing with PBS twice and immediately used or kept at − 80 °C. To prepare parasite lysates for proteasome purification, parasite pellet was resuspended with 100 µl of pre-cooled Pierce™ RIPA buffer. A mild protein extraction method was used to prepare parasite extracts. The resuspended parasites were passed 20 times through a needle with a diameter of 0.4 mm in a syringe on ice to lyse the parasite. After 15 min centrifugation at 13,000 xg at 4 °C, the supernatant was removed. Protein concentration was determined by the Bradford assay. The activities of 3 proteolytic sites were determined by fluorescence assay using fluorogenic peptide substrates (Suc-LLVY-AMC for chymotrypsin-like, Boc-LRR-AMC for trypsin-like and Suc-LLE-AMC for caspase-like) Proteasome activities were determined by monitoring the substrate hydrolysis for 30 min at 37 °C with 340 nm excitation and 465 nm emission wavelength. Activity of each proteolytic site were calculated, and the IC50 values were determined from the non-linear regression analysis. VR23 proteasome inhibitor was used as positive control.

[4] = biological target: Pf3D7 20S proteasome chymotrypsin-like (CT-L) site (Plasmodium falciparum, UniProt Q8IJT1); assay: as above; type: biochemical; details: Suc-LLVY-AMC, 30 min
Chain of Pf3D7 20S proteasome chymotrypsin-like (CT-L) site (Q8IJT1 entry or part of it): as above
Procedure: as §1

[5] = biological target: Pf3D7 20S proteasome trypsin-like (T-L) site (Plasmodium falciparum, UniProt Q8I6T3); assay: as above; type: biochemical; details: Boc-LRR-AMC, 30 min
Chain of Pf3D7 20S proteasome trypsin-like (T-L) site (Q8I6T3 entry or part of it): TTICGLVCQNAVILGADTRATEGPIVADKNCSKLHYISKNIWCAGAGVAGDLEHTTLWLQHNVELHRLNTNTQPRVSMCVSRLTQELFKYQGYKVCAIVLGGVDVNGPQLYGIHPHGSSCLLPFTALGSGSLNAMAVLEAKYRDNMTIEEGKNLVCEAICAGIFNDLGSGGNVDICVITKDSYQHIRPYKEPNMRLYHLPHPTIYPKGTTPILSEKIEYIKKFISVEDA
Procedure: as §1

[6] = biological target: Pf5202 20S proteasome trypsin-like (T-L) site (Plasmodium falciparum, UniProt Q8I6T3); assay: as above; type: biochemical; details: for IC50: parasite lysate, Boc-LRR-AMC, 30 min; for Factor by which T-L site of Pf5202 is inhibited better than that of Pf3D7: ratio of T-L IC50 values
Chain of Pf5202 20S proteasome trypsin-like (T-L) site (Q8I6T3 entry or part of it): as above
Procedure: as §1

[7] = biological target: Pf5202 20S proteasome caspase-like (C-L) site (Plasmodium falciparum, UniProt Q8I0U7); assay: as above; type: biochemical; details: Suc-LLE-AMC, 30 min
Chain of Pf5202 20S proteasome caspase-like (C-L) site (Q8I0U7 entry or part of it): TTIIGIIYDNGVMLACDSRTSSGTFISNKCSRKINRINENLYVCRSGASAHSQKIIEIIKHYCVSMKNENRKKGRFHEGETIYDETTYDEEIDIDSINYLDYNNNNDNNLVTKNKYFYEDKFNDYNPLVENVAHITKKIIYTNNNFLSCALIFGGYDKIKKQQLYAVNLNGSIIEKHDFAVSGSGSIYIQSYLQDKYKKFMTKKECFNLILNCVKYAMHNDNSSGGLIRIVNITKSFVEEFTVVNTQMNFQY
Chain of Pf5202 20S proteasome caspase-like (C-L) site (Q8I6T3 entry or part of it, further chain): as the sequence (Q8I6T3 entry or part of it) above
Procedure: as §1

[8] = biological target: Pf3D7 20S proteasome caspase-like (C-L) site (Plasmodium falciparum, UniProt Q8I0U7); assay: as above; type: biochemical; details: Suc-LLE-AMC, 30 min
Chain of Pf3D7 20S proteasome caspase-like (C-L) site (Q8I6T3 entry or part of it): as above
Chain of Pf3D7 20S proteasome caspase-like (C-L) site (Q8I0U7 entry or part of it): as the sequence (Q8I0U7 entry or part of it) above
Procedure: as §1

Pf5202 [9] = assay: Intracellular ROS level using DCFH-DA; type: cell-based, Plasmodium falciparum
Procedure: (§2) After incubation, packed cells were washed with phosphate buffer saline (PBS) solution. […] The data was expressed as fold change between amount of ROS produced by treated P. falciparum against untreated P. falciparum. Normalization was done with the percentage of parasite viability obtained at each condition. Hydrogen peroxide was used as positive control.

Pf3D7 [10] = assay: Intracellular ROS level using DCFH-DA; type: cell-based, Plasmodium falciparum
Procedure: as §2

Pf5202 [11] = assay: JC-1 mitochondrial membrane potential study; type: cell-based, Plasmodium falciparum; details: JC-1 red/green fluorescence ratio
Procedure: (§3) Mitochondrial membrane potential was investigated using a BD™ MitoScreen Flow Cytometry Mitochondrial Membrane Potential Detection JC-1 kit. In brief, parasitized red blood cells were treated with test compounds at desired concentrations for 12 and 48 h at 37 °C. After incubation, packed cells were stained as per manufacturer’s instructions. Dissipation in Δψm was measured by calculating the ratio between the red and green fluorescence.

Pf3D7 [12] = assay: JC-1 mitochondrial membrane potential study; type: cell-based, Plasmodium falciparum; details: JC-1 red/green fluorescence ratio
Procedure: as §3

## [Cu(phen)(NO3)(H2O)-4,4′-bipy-Cu(phen)(NO3)(H2O)](NO3)2 [Complex 3]
[1]; 1 µM
  Percentage of haemolysis (haemolytic index, HI): 35%
[1]; 5 µM
  Percentage of haemolysis (haemolytic index, HI): 96%
[1]; 25 µM
  Percentage of haemolysis (haemolytic index, HI): 36%
Pf3D7 [2]
  Type of cell death by nuclear morphology (Hoechst): underwent apoptosis
[3]
  IC50: > 25 µM
[4]
  IC50: > 25 µM
[5]
  IC50: 2.64 ± 0.35 µM
[6]
  IC50: 1.72 ± 0.13 µM
  Factor by which T-L site of Pf5202 is inhibited better than that of Pf3D7: about 1.5 ×
[7]
  IC50: > 25 µM
[8]
  IC50: > 25 µM
Pf5202 [9]; 24 h, 0.2 µM
  fold change in ROS: 0.04 ± 0.33 fold
Pf5202 [9]; 48 h, 0.2 µM
  fold change in ROS: 0.52 ± 0.60 fold
Pf5202 [9]; 48 h, 1.0 µM
  fold change in ROS: 0.66 ± 0.50 fold
Pf5202 [9]; 48 h, 5.0 µM
  fold change in ROS: 2.53 ± 0.85 fold
Pf5202 [9]; 48 h, 25.0 µM
  fold change in ROS: 3.39 ± 0.66 fold
Pf5202 [9]; 72 h, 5.0 µM
  fold change in ROS: 8.43 ± 0.60 fold
Pf3D7 [10]; 24 h, 0.2 µM
  fold change in ROS: 1.76 ± 0.47 fold
Pf3D7 [10]; 24 h, 1.0 µM
  fold change in ROS: 1.13 ± 0.56 fold
Pf3D7 [10]; 24 h, 5.0 µM
  fold change in ROS: 2.30 ± 0.86 fold
Pf3D7 [10]; 24 h, 25.0 µM
  fold change in ROS: 5.36 ± 0.30 fold
Pf3D7 [10]; 48 h, 0.2 µM
  fold change in ROS: 1.20 ± 0.64 fold
Pf3D7 [10]; 48 h, 1.0 µM
  fold change in ROS: 1.28 ± 0.31 fold
Pf3D7 [10]; 48 h, 5.0 µM
  fold change in ROS: 3.80 ± 1.18 fold
Pf3D7 [10]; 48 h, 25.0 µM
  fold change in ROS: 5.46 ± 0.25 fold
Pf3D7 [10]; 72 h, 0.2 µM
  fold change in ROS: 1.49 ± 0.10 fold
Pf3D7 [10]; 72 h, 1.0 µM
  fold change in ROS: 1.77 ± 0.24 fold
Pf3D7 [10]; 72 h, 5.0 µM
  fold change in ROS: 1.68 ± 0.41 fold
Pf3D7 [10]; 72 h, 25.0 µM
  fold change in ROS: 2.74 ± 0.24 fold
Pf5202 [11]; 12 h, 1 µM
  Mitochondrial membrane potential (Δψm): 17.5 ± 2.2
Pf5202 [11]; 12 h, 5 µM
  Mitochondrial membrane potential (Δψm): 16.6 ± 4.6
Pf5202 [11]; 12 h, 25 µM
  Mitochondrial membrane potential (Δψm): 0.5 ± 0.1
Pf5202 [11]; 48 h, 1 µM
  Mitochondrial membrane potential (Δψm): 19.2 ± 8.4
Pf5202 [11]; 48 h, 5 µM
  Mitochondrial membrane potential (Δψm): 0.6 ± 0.1
Pf5202 [11]; 48 h, 25 µM
  Mitochondrial membrane potential (Δψm): 0.1 ± 0.01
Pf3D7 [12]; 12 h, 1 µM
  Mitochondrial membrane potential (Δψm): 24.2 ± 1.6
Pf3D7 [12]; 12 h, 5 µM
  Mitochondrial membrane potential (Δψm): 49.3 ± 23.8
Pf3D7 [12]; 12 h, 25 µM
  Mitochondrial membrane potential (Δψm): 0.4 ± 0.2
Pf3D7 [12]; 48 h, 1 µM
  Mitochondrial membrane potential (Δψm): 45.0 ± 26.4
Pf3D7 [12]; 48 h, 5 µM
  Mitochondrial membrane potential (Δψm): 4.7 ± 2.6
Pf3D7 [12]; 48 h, 25 µM
  Mitochondrial membrane potential (Δψm): 0.1 ± 0.04

## O.O=[N+]([O-])[O-].O=[N+]([O-])[O-].[Cu+2].c1cnc2c(c1)ccc1cccnc12.c1cnc2c(c1)ccc1cccnc12 [Complex 1, [Cu(phen)2](NO3)2·H2O]
[1]; 1 µM
  Percentage of haemolysis (haemolytic index, HI): 4%
[1]; 5 µM
  Percentage of haemolysis (haemolytic index, HI): 80%
[1]; 25 µM
  Percentage of haemolysis (haemolytic index, HI): 43%
Pf3D7 [2]
  Type of cell death by nuclear morphology (Hoechst): underwent apoptosis
[3]
  IC50: > 25 µM
[4]
  IC50: > 25 µM
[5]
  IC50: 2.39 ± 0.13 µM
[6]
  IC50: 1.62 ± 0.3 µM
  Factor by which T-L site of Pf5202 is inhibited better than that of Pf3D7: about 1.5 ×
[7]
  IC50: > 25 µM
[8]
  IC50: > 25 µM
Pf5202 [9]; 24 h, 0.2 µM
  fold change in ROS: 1.04 ± 0.03 fold
Pf5202 [9]; 24 h, 1.0 µM
  fold change in ROS: 0.86 ± 0.04 fold
Pf5202 [9]; 24 h, 5.0 µM
  fold change in ROS: 0.59 ± 0.02 fold
Pf5202 [9]; 24 h, 25.0 µM
  fold change in ROS: 0.04 ± 0.03 fold
Pf5202 [9]; 48 h, 0.2 µM
  fold change in ROS: 0.32 ± 0.02 fold
Pf5202 [9]; 48 h, 1.0 µM
  fold change in ROS: 0.33 ± 0.05 fold
Pf5202 [9]; 48 h, 5.0 µM
  fold change in ROS: 0.72 ± 0.12 fold
Pf5202 [9]; 48 h, 25.0 µM
  fold change in ROS: 0.52 ± 0.26 fold
Pf5202 [9]; 72 h, 0.2 µM
  fold change in ROS: 1.09 ± 0.07 fold
Pf5202 [9]; 72 h, 1.0 µM
  fold change in ROS: 1.33 ± 0.41 fold
Pf5202 [9]; 72 h, 5.0 µM
  fold change in ROS: 1.69 ± 0.22 fold
Pf3D7 [10]; 24 h, 0.2 µM
  fold change in ROS: 1.44 ± 0.10 fold
Pf3D7 [10]; 24 h, 1.0 µM
  fold change in ROS: 1.54 ± 0.26 fold
Pf3D7 [10]; 24 h, 5.0 µM
  fold change in ROS: 2.28 ± 0.25 fold
Pf3D7 [10]; 24 h, 25.0 µM
  fold change in ROS: 7.59 ± 0.46 fold
Pf3D7 [10]; 48 h, 0.2 µM
  fold change in ROS: 2.45 ± 0.41 fold
Pf3D7 [10]; 48 h, 1.0 µM
  fold change in ROS: 3.20 ± 0.19 fold
Pf3D7 [10]; 48 h, 5.0 µM
  fold change in ROS: 4.54 ± 0.52 fold
Pf3D7 [10]; 48 h, 25.0 µM
  fold change in ROS: 6.83 ± 0.83 fold
Pf3D7 [10]; 72 h, 0.2 µM
  fold change in ROS: 0.00 ± 0.10 fold
Pf5202 [11]; 12 h, 1 µM
  Mitochondrial membrane potential (Δψm): 18.9 ± 2.8
Pf5202 [11]; 12 h, 5 µM
  Mitochondrial membrane potential (Δψm): 17.5 ± 3.5
Pf5202 [11]; 12 h, 25 µM
  Mitochondrial membrane potential (Δψm): 1.1 ± 0.6
Pf5202 [11]; 48 h, 1 µM
  Mitochondrial membrane potential (Δψm): 10.4 ± 3.1
Pf5202 [11]; 48 h, 5 µM
  Mitochondrial membrane potential (Δψm): 6.0 ± 1.8
Pf5202 [11]; 48 h, 25 µM
  Mitochondrial membrane potential (Δψm): 1.2 ± 0.1
Pf3D7 [12]; 12 h, 1 µM
  Mitochondrial membrane potential (Δψm): 17.2 ± 12.8
Pf3D7 [12]; 12 h, 5 µM
  Mitochondrial membrane potential (Δψm): 29.7 ± 12.1
Pf3D7 [12]; 12 h, 25 µM
  Mitochondrial membrane potential (Δψm): 1.9 ± 1.1
Pf3D7 [12]; 48 h, 1 µM
  Mitochondrial membrane potential (Δψm): 41.1 ± 5.1
Pf3D7 [12]; 48 h, 5 µM
  Mitochondrial membrane potential (Δψm): 43.6 ± 15.0
Pf3D7 [12]; 48 h, 25 µM
  Mitochondrial membrane potential (Δψm): 0.5 ± 0.3
